Laboratory results taken from patent US20040106545A1, “Compounds and methods for modulating cell adhesion” (priority 1996, published 2004).
Values joined by “and” are separate entries in the source; they are usually repeats but may differ in a detail not shown here. Identical values can stand only once.

Tests used:
[1] = system: SKOV3 human ovarian cancer cells; test: Induction of apoptosis in SKOV3 cancer cells, in situ cell death detection; assay type: cell-based; conditions: 0.5 or 0.25 mg/mL, 48 hours
Method: Direct assays of induction of apoptosis may be performed using any standard technique. For example, cadherin-expressing cells (e.g., SKOV3 human ovarian cancer cells) may be plated onto poly-L-lysine coated glass slides and cultured with 500 μg/mL of modulating agent for 24-48 hours. Cells may then be fixed and assayed for cell death using any of a variety of well known methods. For example, an in situ cell death detection kit may be purchased from Boehringer Mannheim (Laval, Quebec) and used according to the manufacturer's instructions.
SKOV3 human ovarian cancer cells cultured in the presence of either N—Ac-CHAVC-NH2 (SEQ ID NO:10) or a control peptide (N—Ac-CHGVC-NH2; SEQ ID NO:11) in MEM with 10% FBS were plated onto poly-L-lysine coated glass slides. The cells were cultured for 24 or 48 hours and fixed with 4% paraformaldehyde for 30 minutes at room temperature. The slides were then washed three times with PBS and assessed for cell death. Cells were treated with 0.5 or 0.25 mg/mL of N—Ac-CHAVC-NH2 (SEQ ID NO:10) or the control N—Ac-CHGVC-NH2 (SEQ ID NO:11), as indicated. Cell death was measured as described by Gavrieli et al, J. Cell. Biol. 119:493-501, 1992 and using the In situ cell death detection kit (Boehringer Mannheim; Laval, Quebec).

human skin = test: Human skin permeability, Franz Cell apparatus
Method: Another cell adhesion assay involves evaluating the effect of a modulating agent on permeability of adherent epithelial and/or endothelial cell layers. For example, the effect on permeability of human skin may be evaluated. Such skin may be derived from a natural source or may be synthetic. Human abdominal skin for use in such assays may generally be obtained from humans at autopsy within 24 hours of death. Briefly, a cyclic peptide and a test marker (e.g., the fluorescent markers Oregon Green™ and Rhodamine Green™ Dextran) may be dissolved in a sterile buffer, and the ability of the marker to penetrate through the skin and into a receptor fluid may be measured using a Franz Cell apparatus (Franz, Curr. Prob. Dermatol. 7:58-68, 1978; Franz, J. Invest. Dermatol. 64:190-195, 1975). In general, a modulating agent that enhances the permeability of human skin results in a statistically significant increase in the amount of marker in the receptor compartment after 6-48 hours in the presence of 500 μg/mL modulating agent. This assay evaluates the effect of a modulating agent on E-cadherin mediated cell adhesion.
Abdominal skin from humans at autopsy within 24 hours of death was used in these assays. The effect of N—Ac-CHAVC-NH2 (SEQ ID NO:10) and N—Ac-CHGVC-NH2 (SEQ ID NO:11), used at a concentration of 500 μg/ml or 2.5 mg/ml, on the penetration of two fluorescent markers, Oregon Green 488 (charge −1, MW 386 daltons) and Rhodamine Green 3000 Dextran (no charge, MW 3000 daltons) through human skin was then evaluated utilizing a Franz Cell apparatus (Franz, Curr. Prob. Dermatol. 7:58-68, 1978; Franz, J. Invest. Dermatol. 64:190-195, 1975). The peptides and markers were dissolved in sterile phosphate buffer, pH 7.2, and phosphate buffer was used as the receptor fluid. 150 μl of solution containing 0.2 mg Oregon Green and 1.0 mg Rhodamine Green was used to evaluate 500 μg/ml peptide; 200 μl of solution containing 0.05 mg Oregon Green and 1.250 mg Rhodamine Green was used to evaluate 2.5 mg/ml peptide. The solution was placed on top of the epidermal side of the skin, and the penetration of the markers through the skin was assessed using a fluorescent spectrophotometric method (in a Perkin Elmer 650-105 Fluorescence Spectrophotometer, and comparing the reading to a standard curve) at 6, 12, 24, 36, and 48 hours after the start of the experiment. The fluorescent units were converted to a concentration unit of microgram/5 ml (volume of the receiver compartment) using a standard curve and regression analysis equations. The curve was linear for the concentrations tested for both markers (r^2=1 for OrG and 0.997 for RhG). For each peptide and marker combination, the experiment was performed in triplicate.

Melanoma ME115 cells = test: Disruption of melanoma cell adhesion, pan-cadherin staining; assay type: cell-based, human; conditions: 500 μg/mL, 48 hours
Method: Melanoma ME115 cells (kindly provided by Meenhard Herlyn, Wistar Institute, Philadelphia, Pa.) were plated on glass coverslips and cultured for 24 hours in 50% keratinocyte growth medium (Clonetics, San Diego, Calif.) and 50% L15. Fresh medium containing the cyclic peptides (final concentration 500 μg/mL media) N—Ac-CHAVC-NH2 (SEQ ID NO:10) or N—Ac-CHGVC-NH2 (SEQ ID NO:11) was then added. Following 24 hours of culture in the presence of the peptides, the medium was removed and fresh medium containing the peptides was added. The cells were fixed 24 hours later with cold methanol and stored in phosphate buffered saline (PBS).
Coverslips were blocked for 1 hour in 3% ovalbumin/PBS and incubated for a further 1 hour in the presence of rabbit pan-cadherin antibody (Sigma Chemical Co., St. Louis, Mo.) diluted 1:500. Primary and secondary antibodies were diluted in PBS containing 6% normal goat serum. Following incubation in the primary antibody, coverslips were washed 3 times for 5 minutes each in PBS and incubated for 1 hour in goat anti-rabbit immunoglobulin G conjugated to fluorescein (Kiekegard and Perry, South San Francisco, Calif.) diluted 1:100. Following a further wash in PBS (3×5 minutes) coverslips were mounted in Vectashield (Vector Labs, Burlingame, Calif.) and viewed with a Zeiss infinity corrected microscope.

[2] = 500 μg/ml Peptide, t = 6 hours, Mean
[3] = 500 μg/ml Peptide, t = 6 hours, single replicates, listed as Sample#3
[4] = 500 μg/ml Peptide, t = 12 hours, Mean
[5] = 500 μg/ml Peptide, t = 12 hours, single replicates, listed as Sample#3
[6] = 500 μg/ml Peptide, t = 24 hours, Mean
[7] = 500 μg/ml Peptide, t = 24 hours, single replicates, listed as Sample#3
[8] = 500 μg/ml Peptide, t = 36 hours, Mean
[9] = 500 μg/ml Peptide, t = 36 hours, single replicates, listed as Sample#3
[10] = 500 μg/ml Peptide, t = 48 hours, Mean
[11] = 500 μg/ml Peptide, t = 48 hours, single replicates, listed as Sample#3
[12] = 2.5 mg/ml Peptide, t = 6 hours, Mean
[13] = 2.5 mg/ml Peptide, t = 6 hours, single replicates, listed as Sample#3
[14] = 2.5 mg/ml Peptide, t = 12 hours, Mean
[15] = 2.5 mg/ml Peptide, t = 12 hours, single replicates, listed as Sample#3
[16] = 2.5 mg/ml Peptide, t = 24 hours, Mean
[17] = 2.5 mg/ml Peptide, t = 24 hours, single replicates, listed as Sample#3
[18] = 2.5 mg/ml Peptide, t = 36 hours, Mean
[19] = 2.5 mg/ml Peptide, t = 36 hours, single replicates, listed as Sample#3
[20] = 2.5 mg/ml Peptide, t = 48 hours, Mean
[21] = 2.5 mg/ml Peptide, t = 48 hours, single replicates, listed as Sample#3

Q: How did the “cell death of SKOV3 cells” value [1] turn out when `CC(=O)N[C@H]1CSSC[C@@H](C(N)=O)NC(=O)[C@H](C(C)C)NC(=O)CNC(=O)[C@H](Cc2c[nH]cn2)NC1=O` [N—Ac—CHGVC—NH2, reference compound] was run?
A: did not die

Q: What about the “Percutaneous absorption concentration for Dextran Rhodamine Green 3000” value (human skin; [2]) of the same molecule?
A: 0.23 mg/5ml

Q: And the “Percutaneous absorption concentration for Oregon Green 488” value (human skin; [2])?
A: 0.055 mg/5ml

Q: What about the “Percutaneous absorption concentration for Dextran Rhodamine Green 3000” value (human skin; [3]) of the same molecule?
A: 0.2 mg/5ml (2×) and 0.3 mg/5ml

Q: What about the “Percutaneous absorption concentration for Oregon Green 488” value (human skin; [3]) of the same molecule?
A: 0.098 mg/5ml and 0.022 mg/5ml and 0.045 mg/5ml

Q: And the “Percutaneous absorption concentration for Dextran Rhodamine Green 3000” value (human skin; [4])?
A: 0.67 mg/5ml

Q: And the “Percutaneous absorption concentration for Oregon Green 488” value (human skin; [4])?
A: 0.132 mg/5ml

Q: What about the “Percutaneous absorption concentration for Dextran Rhodamine Green 3000” value (human skin; [5]) of the same molecule?
A: 0.6 mg/5ml and 1.0 mg/5ml and 0.4 mg/5ml

Q: What about the “Percutaneous absorption concentration for Oregon Green 488” value (human skin; [5]) of the same molecule?
A: 0.200 mg/5ml and 0.107 mg/5ml and 0.088 mg/5ml

Q: What about the “Percutaneous absorption concentration for Dextran Rhodamine Green 3000” value (human skin; [6]) of the same molecule?
A: 1.07 mg/5ml

Q: What about the “Percutaneous absorption concentration for Oregon Green 488” value (human skin; [6]) of the same molecule?
A: 0.698 mg/5ml

Q: And the “Percutaneous absorption concentration for Dextran Rhodamine Green 3000” value (human skin; [7])?
A: 1.0 mg/5ml and 1.4 mg/5ml and 0.8 mg/5ml

Q: What about the “Percutaneous absorption concentration for Oregon Green 488” value (human skin; [7]) of the same molecule?
A: 0.709 mg/5ml and 0.864 mg/5ml and 0.522 mg/5ml

Q: What about the “Percutaneous absorption concentration for Dextran Rhodamine Green 3000” value (human skin; [8]) of the same molecule?
A: 1.2 mg/5ml

Q: What about the “Percutaneous absorption concentration for Oregon Green 488” value (human skin; [8]) of the same molecule?
A: 0.802 mg/5ml

Q: What about the “Percutaneous absorption concentration for Dextran Rhodamine Green 3000” value (human skin; [9]) of the same molecule?
A: 1.0 mg/5ml (2×) and 1.6 mg/5ml

Q: And the “Percutaneous absorption concentration for Oregon Green 488” value (human skin; [9])?
A: 0.769 mg/5ml and 0.923 mg/5ml and 0.714 mg/5ml

Q: What about the “Percutaneous absorption concentration for Dextran Rhodamine Green 3000” value (human skin; [10]) of the same molecule?
A: 2.99 mg/5ml

Q: What about the “Percutaneous absorption concentration for Oregon Green 488” value (human skin; [10]) of the same molecule?
A: 0.902 mg/5ml

Q: And the “Percutaneous absorption concentration for Dextran Rhodamine Green 3000” value (human skin; [11])?
A: 1.8 mg/5ml (2×) and 5.370 mg/5ml

Q: And the “Percutaneous absorption concentration for Oregon Green 488” value (human skin; [11])?
A: 0.923 mg/5ml and 1.021 mg/5ml and 0.764 mg/5ml

Q: And the “Percutaneous absorption concentration for Dextran Rhodamine Green 3000” value (human skin; [12])?
A: 1.93 mg/5ml

Q: What about the “Percutaneous absorption concentration for Oregon Green 488” value (human skin; [12]) of the same molecule?
A: 0.04 mg/5ml

Q: And the “Percutaneous absorption concentration for Dextran Rhodamine Green 3000” value (human skin; [13])?
A: 1.8 mg/5ml and 0.2 mg/5ml and 3.8 mg/5ml

Q: What about the “Percutaneous absorption concentration for Oregon Green 488” value (human skin; [13]) of the same molecule?
A: 0.04 mg/5ml and 0.01 mg/5ml and 0.06 mg/5ml

Q: What about the “Percutaneous absorption concentration for Dextran Rhodamine Green 3000” value (human skin; [14]) of the same molecule?
A: 8.97 mg/5ml

Q: What about the “Percutaneous absorption concentration for Oregon Green 488” value (human skin; [14]) of the same molecule?
A: 0.07 mg/5ml

Q: And the “Percutaneous absorption concentration for Dextran Rhodamine Green 3000” value (human skin; [15])?
A: 17.02 mg/5ml and 2.0 mg/5ml and 7.89 mg/5ml

Q: What about the “Percutaneous absorption concentration for Oregon Green 488” value (human skin; [15]) of the same molecule?
A: 0.11 mg/5ml and 0.04 mg/5ml and 0.08 mg/5ml

Q: What about the “Percutaneous absorption concentration for Dextran Rhodamine Green 3000” value (human skin; [16]) of the same molecule?
A: 15.64 mg/5ml

Q: What about the “Percutaneous absorption concentration for Oregon Green 488” value (human skin; [16]) of the same molecule?
A: 0.16 mg/5ml

Q: What about the “Percutaneous absorption concentration for Dextran Rhodamine Green 3000” value (human skin; [17]) of the same molecule?
A: 27.47 mg/5ml and 5.56 mg/5ml and 13.9 mg/5ml

Q: What about the “Percutaneous absorption concentration for Oregon Green 488” value (human skin; [17]) of the same molecule?
A: 0.12 mg/5ml and 0.11 mg/5ml and 0.26 mg/5ml

Q: And the “Percutaneous absorption concentration for Dextran Rhodamine Green 3000” value (human skin; [18])?
A: 19.73 mg/5ml

Q: What about the “Percutaneous absorption concentration for Oregon Green 488” value (human skin; [18]) of the same molecule?
A: 0.25 mg/5ml

Q: What about the “Percutaneous absorption concentration for Dextran Rhodamine Green 3000” value (human skin; [19]) of the same molecule?
A: 33.06 mg/5ml and 5.79 mg/5ml and 20.35 mg/5ml

Q: What about the “Percutaneous absorption concentration for Oregon Green 488” value (human skin; [19]) of the same molecule?
A: 0.23 mg/5ml and 0.22 mg/5ml and 0.29 mg/5ml

Q: What about the “Percutaneous absorption concentration for Dextran Rhodamine Green 3000” value (human skin; [20]) of the same molecule?
A: 25.53 mg/5ml

Q: What about the “Percutaneous absorption concentration for Oregon Green 488” value (human skin; [20]) of the same molecule?
A: 0.36 mg/5ml

Q: And the “Percutaneous absorption concentration for Dextran Rhodamine Green 3000” value (human skin; [21])?
A: 40.86 mg/5ml and 8.25 mg/5ml and 27.48 mg/5ml

Q: What about the “Percutaneous absorption concentration for Oregon Green 488” value (human skin; [21]) of the same molecule?
A: 0.36 mg/5ml and 0.26 mg/5ml and 0.46 mg/5ml

Q: What about the “cadherin staining of ME115 cells” value (Melanoma ME115 cells) of the same molecule?
A: displayed cadherin staining all over the cell membrane
